Measured values reported in PMC5119973 (Cancer Medicine, 2016).
Where “and” joins values, the source holds several entries; their conditions need not be identical. Equal values may be shown once.

Key:
ABL1-np = molecular target: T1, ABL1-np (Homo sapiens, UniProt P00519); assay: KINOMEscan active-site competitive binding assay; conditions: ABL1-np (not phosphorylated); slash = two separate measurements
T1 construct: purchased DiscoveRx (KINOMEscan service)

CSF1R = molecular target: T2, CSF1R (Homo sapiens, UniProt P07333); assay: KINOMEscan active-site competitive binding assay; conditions: slash = two separate measurements
T2 construct: purchased DiscoveRx (KINOMEscan service)
T2 sequence (P07333 20-972): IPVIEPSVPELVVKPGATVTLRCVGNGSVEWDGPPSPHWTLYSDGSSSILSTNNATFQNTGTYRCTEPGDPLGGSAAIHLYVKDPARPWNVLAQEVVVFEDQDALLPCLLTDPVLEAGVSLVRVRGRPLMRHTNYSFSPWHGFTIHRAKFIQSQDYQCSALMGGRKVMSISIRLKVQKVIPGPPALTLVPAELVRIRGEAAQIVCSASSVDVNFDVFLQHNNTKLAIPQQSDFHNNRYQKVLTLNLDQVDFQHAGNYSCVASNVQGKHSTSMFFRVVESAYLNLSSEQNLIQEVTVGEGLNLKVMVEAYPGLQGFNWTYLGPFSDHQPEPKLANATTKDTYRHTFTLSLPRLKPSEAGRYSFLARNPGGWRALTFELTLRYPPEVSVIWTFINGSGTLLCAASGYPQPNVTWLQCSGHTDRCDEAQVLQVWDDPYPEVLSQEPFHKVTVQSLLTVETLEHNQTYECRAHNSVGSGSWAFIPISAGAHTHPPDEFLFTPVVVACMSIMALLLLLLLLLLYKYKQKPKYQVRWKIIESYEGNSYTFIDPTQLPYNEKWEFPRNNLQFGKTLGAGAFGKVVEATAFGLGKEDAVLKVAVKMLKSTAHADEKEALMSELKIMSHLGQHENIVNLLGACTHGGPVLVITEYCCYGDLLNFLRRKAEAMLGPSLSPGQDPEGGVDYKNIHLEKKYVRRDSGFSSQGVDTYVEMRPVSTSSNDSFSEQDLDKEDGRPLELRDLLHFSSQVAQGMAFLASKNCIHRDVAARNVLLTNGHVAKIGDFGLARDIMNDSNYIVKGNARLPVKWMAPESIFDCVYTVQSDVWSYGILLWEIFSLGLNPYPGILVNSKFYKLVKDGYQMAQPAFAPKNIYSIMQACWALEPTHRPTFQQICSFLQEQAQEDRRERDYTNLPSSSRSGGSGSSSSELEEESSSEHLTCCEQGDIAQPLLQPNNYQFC

HIPK4 = molecular target: T3, HIPK4 (Homo sapiens, UniProt Q8NE63); assay: KINOMEscan active-site competitive binding assay; conditions: slash = two separate measurements
T3 construct: purchased DiscoveRx (KINOMEscan service)
T3 sequence (Q8NE63 1-616): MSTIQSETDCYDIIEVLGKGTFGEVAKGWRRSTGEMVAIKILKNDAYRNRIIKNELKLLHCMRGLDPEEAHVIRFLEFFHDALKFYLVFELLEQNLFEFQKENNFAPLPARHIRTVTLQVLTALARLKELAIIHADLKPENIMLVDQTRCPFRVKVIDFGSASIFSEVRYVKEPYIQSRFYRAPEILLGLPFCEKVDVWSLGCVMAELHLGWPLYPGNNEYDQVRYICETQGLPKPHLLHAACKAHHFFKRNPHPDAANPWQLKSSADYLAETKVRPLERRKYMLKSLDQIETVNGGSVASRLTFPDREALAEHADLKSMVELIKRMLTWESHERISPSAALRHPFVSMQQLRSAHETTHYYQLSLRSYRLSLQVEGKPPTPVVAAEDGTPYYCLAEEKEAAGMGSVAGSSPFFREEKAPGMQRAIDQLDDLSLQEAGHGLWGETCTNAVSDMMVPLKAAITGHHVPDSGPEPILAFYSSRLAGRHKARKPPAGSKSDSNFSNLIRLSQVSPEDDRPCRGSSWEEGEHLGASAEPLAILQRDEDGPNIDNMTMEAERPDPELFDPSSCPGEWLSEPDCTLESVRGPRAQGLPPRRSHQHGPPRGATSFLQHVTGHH

MKNK2 = molecular target: T4, MKNK2 (Homo sapiens, UniProt Q9HBH9); assay: KINOMEscan active-site competitive binding assay; conditions: slash = two separate measurements
T4 construct: purchased DiscoveRx (KINOMEscan service)
T4 sequence (Q9HBH9 whole entry): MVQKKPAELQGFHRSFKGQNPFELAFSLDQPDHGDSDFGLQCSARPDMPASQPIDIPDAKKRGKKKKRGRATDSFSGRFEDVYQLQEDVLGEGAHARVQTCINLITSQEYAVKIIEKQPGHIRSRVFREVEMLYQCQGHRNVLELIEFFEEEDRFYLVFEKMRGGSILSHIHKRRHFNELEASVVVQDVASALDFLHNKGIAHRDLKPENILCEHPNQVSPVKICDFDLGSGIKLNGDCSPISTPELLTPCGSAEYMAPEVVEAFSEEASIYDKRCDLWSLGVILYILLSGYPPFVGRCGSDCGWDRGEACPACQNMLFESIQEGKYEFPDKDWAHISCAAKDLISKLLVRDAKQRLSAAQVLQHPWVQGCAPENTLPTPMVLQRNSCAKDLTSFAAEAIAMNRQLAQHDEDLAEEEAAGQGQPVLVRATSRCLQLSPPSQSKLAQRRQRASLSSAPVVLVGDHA

TNIK = molecular target: T5, TNIK (Homo sapiens, UniProt Q9UKE5); assay: KINOMEscan active-site competitive binding assay; conditions: slash = two separate measurements
T5 construct: purchased DiscoveRx
T5 sequence (Q9UKE5 whole entry): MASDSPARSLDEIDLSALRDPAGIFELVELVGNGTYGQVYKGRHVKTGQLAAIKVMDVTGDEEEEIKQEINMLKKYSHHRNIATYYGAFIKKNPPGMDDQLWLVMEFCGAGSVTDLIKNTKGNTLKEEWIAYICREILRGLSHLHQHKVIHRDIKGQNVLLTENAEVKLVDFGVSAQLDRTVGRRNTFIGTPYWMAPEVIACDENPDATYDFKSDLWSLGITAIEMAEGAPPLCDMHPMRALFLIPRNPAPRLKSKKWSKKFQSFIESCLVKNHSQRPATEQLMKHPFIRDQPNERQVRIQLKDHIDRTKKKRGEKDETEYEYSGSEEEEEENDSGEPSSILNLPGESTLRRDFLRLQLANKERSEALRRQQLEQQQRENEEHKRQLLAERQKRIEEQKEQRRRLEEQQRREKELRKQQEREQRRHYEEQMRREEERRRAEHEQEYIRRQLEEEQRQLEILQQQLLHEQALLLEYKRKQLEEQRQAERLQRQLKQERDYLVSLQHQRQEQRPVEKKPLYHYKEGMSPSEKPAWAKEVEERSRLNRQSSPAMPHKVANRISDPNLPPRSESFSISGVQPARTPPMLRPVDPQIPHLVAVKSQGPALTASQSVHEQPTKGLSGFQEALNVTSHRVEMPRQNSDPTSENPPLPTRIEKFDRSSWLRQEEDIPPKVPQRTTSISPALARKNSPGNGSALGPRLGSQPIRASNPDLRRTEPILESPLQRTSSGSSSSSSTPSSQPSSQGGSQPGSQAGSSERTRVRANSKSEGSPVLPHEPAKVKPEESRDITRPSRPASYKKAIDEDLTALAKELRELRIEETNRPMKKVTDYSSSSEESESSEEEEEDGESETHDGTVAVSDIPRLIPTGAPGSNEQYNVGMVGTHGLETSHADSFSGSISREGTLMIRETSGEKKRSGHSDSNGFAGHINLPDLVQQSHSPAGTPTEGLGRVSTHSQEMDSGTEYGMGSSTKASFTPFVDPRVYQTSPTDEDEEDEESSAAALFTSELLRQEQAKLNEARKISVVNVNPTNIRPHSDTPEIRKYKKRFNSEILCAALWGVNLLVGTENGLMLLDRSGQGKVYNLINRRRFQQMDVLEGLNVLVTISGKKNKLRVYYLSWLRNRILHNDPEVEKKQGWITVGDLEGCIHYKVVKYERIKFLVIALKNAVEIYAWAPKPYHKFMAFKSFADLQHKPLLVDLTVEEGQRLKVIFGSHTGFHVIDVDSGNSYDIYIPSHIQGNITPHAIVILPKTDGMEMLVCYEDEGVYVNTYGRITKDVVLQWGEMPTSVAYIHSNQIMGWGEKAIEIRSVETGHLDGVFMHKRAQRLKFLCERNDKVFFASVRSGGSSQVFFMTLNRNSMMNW

YSK4 = molecular target: T6, YSK4 (Homo sapiens, UniProt Q56UN5); assay: KINOMEscan active-site competitive binding assay; conditions: slash = two separate measurements
T6 construct: purchased DiscoveRx
T6 sequence (Q56UN5 1-1328): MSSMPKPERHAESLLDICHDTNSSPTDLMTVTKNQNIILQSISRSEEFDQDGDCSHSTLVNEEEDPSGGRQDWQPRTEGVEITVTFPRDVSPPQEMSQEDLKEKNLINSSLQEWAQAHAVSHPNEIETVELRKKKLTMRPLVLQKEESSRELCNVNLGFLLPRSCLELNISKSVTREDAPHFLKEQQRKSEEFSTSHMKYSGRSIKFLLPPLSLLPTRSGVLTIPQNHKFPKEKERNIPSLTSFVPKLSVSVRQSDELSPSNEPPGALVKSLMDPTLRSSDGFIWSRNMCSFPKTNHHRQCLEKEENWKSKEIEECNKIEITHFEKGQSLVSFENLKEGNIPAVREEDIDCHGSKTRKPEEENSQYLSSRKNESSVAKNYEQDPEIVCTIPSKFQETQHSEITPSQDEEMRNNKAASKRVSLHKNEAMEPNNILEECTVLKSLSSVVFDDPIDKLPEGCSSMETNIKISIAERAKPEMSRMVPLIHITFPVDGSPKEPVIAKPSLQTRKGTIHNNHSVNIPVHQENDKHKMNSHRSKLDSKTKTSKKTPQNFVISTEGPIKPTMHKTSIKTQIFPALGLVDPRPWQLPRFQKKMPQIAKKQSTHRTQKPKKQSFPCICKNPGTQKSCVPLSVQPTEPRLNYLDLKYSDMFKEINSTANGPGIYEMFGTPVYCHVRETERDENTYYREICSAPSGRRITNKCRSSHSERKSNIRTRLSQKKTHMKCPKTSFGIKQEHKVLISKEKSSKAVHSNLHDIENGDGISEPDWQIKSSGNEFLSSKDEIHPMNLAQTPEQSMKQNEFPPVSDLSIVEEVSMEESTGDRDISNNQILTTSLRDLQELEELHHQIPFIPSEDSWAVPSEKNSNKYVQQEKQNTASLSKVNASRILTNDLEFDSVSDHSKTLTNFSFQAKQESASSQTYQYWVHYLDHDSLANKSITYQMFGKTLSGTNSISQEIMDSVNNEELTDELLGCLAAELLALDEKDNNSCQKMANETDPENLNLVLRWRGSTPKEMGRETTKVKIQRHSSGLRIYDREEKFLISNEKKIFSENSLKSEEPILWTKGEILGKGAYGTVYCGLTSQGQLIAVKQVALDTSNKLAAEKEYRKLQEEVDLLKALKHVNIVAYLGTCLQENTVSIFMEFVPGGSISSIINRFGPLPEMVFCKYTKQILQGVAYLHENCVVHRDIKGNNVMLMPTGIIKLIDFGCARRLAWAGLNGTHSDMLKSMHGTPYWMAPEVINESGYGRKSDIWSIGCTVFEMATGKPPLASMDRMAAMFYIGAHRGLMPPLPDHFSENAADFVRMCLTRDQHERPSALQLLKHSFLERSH

[1] = system: EGFR family kinases, the protein kinase C family, insulin and insulin‐like growth factor receptor kinases, MET, MEK family kinases (with the exception of …); assay: KINOMEscan active-site competitive binding assay, kinases not inhibited; conditions: concentrations up to 1 μmol/L; data not shown
MDA‐MB‐231 = MDA‐MB‐231 breast cancer xenograft in NMRI nu/nu mice; format: in vivo, mouse; conditions: for Tumor growth inhibition (%): MDA-MB-231, end of study day 40; for Tumor growth versus vehicle control: MDA‐MB‐231 model, P < 0.05 for all groups
Experimental: Mouse experiments were approved by the relevant regulatory agency of the federal state of Berlin (Landesamt für Gesundheit und Soziales Berlin, approval number G0221/03). Mice were maintained in individually ventilated cages in groups of four mice per cage. They received autoclaved food and bedding (Ssniff, Soest, Germany) and acidified (pH 4.0) tap water ad libitum. The animal facility was equipped with an automatic 12 h light/dark regulation, temperature regulation at 22 ± 2°C, and relative humidity of 50 ± 10%. Female NMRI nu/nu mice (purchased from Charles River, Sulzfeld, Germany) were inoculated with 1 × 10^7 MDA‐MB‐231 or HT‐29 cells, which were allowed to grow subcutaneously to a palpable size of approximately 60–100 mm^3. […] All administrations were performed in the morning, without anesthesia. Tumor volume was determined twice per week using caliper measurements, and the volume was calculated using the formula (D × d^2)/2, with d defined as the minor axis and D as the major axis of the measurement. Tumor growth inhibition was calculated as relative tumor volume in relation to the first treatment day.
Changes in tumor volume were statistically evaluated by two‐way repeated‐measures analysis of variance, followed by Bonferroni correction, using GraphPad Prism 5 (San Diego, CA), and P < 0.05 was regarded as significant. Additionally, body weight of all mice was determined twice weekly, and the health status of the animals, including behavioral changes, was recorded daily.

[2] = Calculated free drug concentration in human plasma; format: in vivo

T1 sequence (P00519 whole entry): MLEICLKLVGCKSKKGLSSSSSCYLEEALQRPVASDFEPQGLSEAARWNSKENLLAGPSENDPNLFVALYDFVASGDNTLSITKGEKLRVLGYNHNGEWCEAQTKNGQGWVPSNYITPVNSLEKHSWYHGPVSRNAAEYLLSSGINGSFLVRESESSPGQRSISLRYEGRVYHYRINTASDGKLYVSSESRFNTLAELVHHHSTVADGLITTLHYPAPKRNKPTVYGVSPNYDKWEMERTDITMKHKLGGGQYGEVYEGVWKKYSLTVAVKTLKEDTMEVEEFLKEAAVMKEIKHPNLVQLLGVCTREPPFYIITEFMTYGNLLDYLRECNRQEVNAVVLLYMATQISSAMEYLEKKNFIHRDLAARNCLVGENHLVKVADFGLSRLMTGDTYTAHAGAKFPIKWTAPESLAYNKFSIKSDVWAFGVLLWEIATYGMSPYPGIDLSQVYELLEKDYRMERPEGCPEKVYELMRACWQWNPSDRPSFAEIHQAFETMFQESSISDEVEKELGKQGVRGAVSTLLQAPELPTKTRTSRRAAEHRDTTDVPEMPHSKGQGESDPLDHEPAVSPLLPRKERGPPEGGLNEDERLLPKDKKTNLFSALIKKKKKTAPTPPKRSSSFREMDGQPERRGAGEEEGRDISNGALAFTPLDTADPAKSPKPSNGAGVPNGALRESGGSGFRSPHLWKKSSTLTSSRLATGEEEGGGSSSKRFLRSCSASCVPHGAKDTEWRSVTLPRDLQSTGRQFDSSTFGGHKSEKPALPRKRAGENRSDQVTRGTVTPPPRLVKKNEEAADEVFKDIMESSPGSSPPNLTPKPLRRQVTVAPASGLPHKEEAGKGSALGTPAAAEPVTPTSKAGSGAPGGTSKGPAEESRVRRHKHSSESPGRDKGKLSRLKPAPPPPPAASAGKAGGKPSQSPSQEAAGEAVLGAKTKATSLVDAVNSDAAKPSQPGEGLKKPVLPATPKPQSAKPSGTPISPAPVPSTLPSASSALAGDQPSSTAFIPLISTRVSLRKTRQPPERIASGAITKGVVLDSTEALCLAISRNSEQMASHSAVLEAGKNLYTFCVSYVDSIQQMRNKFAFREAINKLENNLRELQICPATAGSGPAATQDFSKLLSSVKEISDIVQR

SMILES	Kd (ABL1-np)	Kd (CSF1R)	Kd (HIPK4)	Kd (MKNK2)	Kd (TNIK)	Kd (YSK4)	Inhibition of binding [1]	Tumor growth inhibition (%) (MDA‐MB‐231; 3 mg/kg/day oral for 27 days)	Tumor growth inhibition (%) (MDA‐MB‐231; 10 mg/kg/day oral for 27 days)	Tumor growth versus vehicle control (MDA‐MB‐231)	Calculated free drug concentration [2] [nmol/L]
CNC(=O)c1cc(Oc2ccc(NC(=O)Nc3ccc(Cl)c(C(F)(F)F)c3)c(F)c2)cc[n+]1[O-] [M‐2]	23 nM	21 nM	15 nM	20 nM	41 nM	55 nM	No inhibition	49	70	significantly inhibited tumor growth	13.5
NC(=O)c1cc(Oc2ccc(NC(=O)Nc3ccc(Cl)c(C(F)(F)F)c3)c(F)c2)cc[n+]1[O-] [M‐5]	20 nM	13 nM	26 nM	11 nM	120 nM	70 nM	No inhibition	60	59	significantly inhibited tumor growth	3.4
CNC(=O)c1cc(Oc2ccc(NC(=O)Nc3ccc(Cl)c(C(F)(F)F)c3)c(F)c2)ccn1 [Regorafenib, reference compound]	32 nM and 16 nM	43 nM and 10 nM	6.9 nM and 4.5 nM	90 nM and 64 nM	1100 nM and 970 nM	38 nM and 94 nM	No inhibition	44	72	significantly inhibited tumor growth	42.1
